Source: patent publication US20240355418A1, “MULTIPLEX, TEMPORALLY RESOLVED MOLECULAR SIGNAL RECORDER AND RELATED METHODS” (University of Washington, priority 2021, published 2024)

Tests used:
Format in all cases: cell-based
[1] = system: HEK293T cells; test: DNA Typewriter: sequential prime editing of integrated TAPE-1 arrays, pegRNA pool + PE2, amplicon sequencing; conditions: PE2 and pegRNAs
Source text: To test this idea, DNA Tape (“TAPE-1”) was designed by modifying a spacer sequence previously shown to be highly amenable to prime editing by the PE2 enzyme (HEK293 target 3 or HEK3). In TAPE-1, a 3-bp key (GGA) is followed by one tandem array of a 14-bp monomer (TGATGGTGAGCACG) (SEQ ID NO: 57) that includes the PAM sequence (TGG) at positions 4-6. At the 5′-most end of the TAPE-1 array, the key sequence, the first 14-bp monomer, and the first 6 bases of the subsequent 14-bp monomer, collectively comprise an intact 20-bp spacer and PAM (FIG. 1A). A set of 16 pegRNAs was further designed to target TAPE-1, with each pegRNA programming a distinct 5-bp insertion (FIG. 1B). The first 2-bp of the insertion is unique to each of the 16 pegRNAs. The remaining 3-bp of the insertion corresponds to the key (GGA). The inventors reasoned that when a pegRNA/PE2-mediated insertion occurred at the active TAPE-1 site, it would: (1) record the identity of the pegRNA via the 2-bp portion of the insertion; (2) inactivate the current active site by disrupting its sequence; and (3) activate the next monomer along the array, as the newly inserted GGA key, together with the subsequent […], creates an intact 20-bp spacer and PAM. In the next iteration of genome editing, a pegRNA-mediated insertion to the second monomer would be recorded while also moving the type-guide to the third monomer, and then to the fourth, the fifth, and so on (FIG. 1C).
TAPE-1 arrays were synthesized and cloned with varying numbers of monomer units (2×TAPE-1, 3×TAPE-1, 5×TAPE-1), and stably integrated these arrays into the genome of HEK293T cells via the piggyBAC system. The resulting cells were transiently transfected with a pool of plasmids designed to express PE2 (pCMV-PE2-P2A-GFP; Addgene #132776) and sixteen pegRNAs, each programmed to insert an NNGGA barcode to TAPE-1, and harvested them after four days. The TAPE-1 region was PCR-amplified from genomic DNA and sequenced.
For each TAPE-1 array, the sequencing reads were categorized into those in which: (1) no editing occurred; (2) the observed pattern was consistent with sequential, directional editing; or (3) the observed pattern was inconsistent with sequential, directional editing (FIG. 1D-F; Table 1). […] However, within the set of reads showing edits, the data were overwhelmingly consistent with sequential, directional editing. For example, with 2×TAPE-1, the second monomer was edited in 22.8±1.7% of reads in which the first monomer was also edited (FIG. 1D). In contrast, the second monomer was only edited in 0.6% of reads in which the first monomer was not edited. […] Data obtained from 3×TAPE-1 and 5×TAPE-1 were also consistent with sequential genome editing. For example, 98.5% (3×TAPE-1) and 99.0% (5×TAPE-1) of reads that were edited at the second monomer were also edited at the first monomer, while 97.6% (3×TAPE-1) and 98.8% (5×TAPE-1) of reads that were edited at the third monomer were also edited at the first and second monomers (FIG. 1E-1F).
Table 1. Read counts and editing efficiencies for 2×TAPE-1, 3×TAPE-1, and 5×TAPE-1. Sequencing reads were grouped based on the observed editing pattern. For example, reads from 2×TAPE-1 array were categorized into four groups: (A) no edit at either TAPE-1 site (‘OO’); (B) 5-bp insertion at the first TAPE-1 site only (‘XO’); (C) 5-bp insertion at the second TAPE-1 site only (‘OX’); or (D) 5-bp insertions at both TAPE-1 sites (‘XX’). For reads from 5×TAPE-1 array, editing groups were simplified by categorizing directional and iterative editing pattern (OOOOO, XO, XXO, XXXO, XXXXO, and XXXXX) and the erroneous editing patterns (OX, NOX, NNOX, and NNNOX, where N can be either O or X). Editing efficiencies at each site were calculated as the fraction of reads with an edit at the site over the total number of reads in which the site had been activated via insertion of the ‘key’ that completed the spacer sequence. […]

[2] = system: iPE2(+) HEK293T; test: Monoclonal lineage tracing, TargetBC-5×TAPE-1 arrays, sc-RNA-seq; conditions: after 25 days of editing, Dox
Source text: The ordered manner in which edits accrue with DNA Typewriter, the use of a prime editor with a Cas9 nickase to insert one of many possible “symbols” at the type-guide, the predefined sequences and locations of potential edits, and the fact that one-and-only-one monomer is an active type-guide at any given moment, have the potential to address all of these limitations at once. […] First, a HEK293T cell line that expresses doxycycline (Dox)-inducible PE2 (iPE2(+) HEK293T) was constructed. A lentiviral construct was designed and cloned that includes: (1) the 5×TAPE-1 sequence, associated with a random 8-bp barcode region (TargetBC) at its 5′-end; (2) a transcription cassette for the TargetBC-5×TAPE-1 with a reverse transcription capture sequence for enrichment during sc-RNA-seq; and (3) a constitutive pegRNA expression cassette that targets TAPE-1 for a 6-bp insertion (NNNGGA; referred to below as InsertBC; GGA is the key sequence for TAPE-1) (FIG. 4A). Lentiviral transduction of this construct to the cell line at a high multiplicity of infection (MOI) was followed by serial dilution to isolate a monoclonal cell line that grew from 1 cell to ˜1.2M cells via ˜20 doublings over 25 days in the presence of Dox (FIG. 4B; FIG. 10A). After harvesting, sc-RNA-seq was used to recover and sequence multiple TargetBC-5×TAPE-1 arrays from each of ˜12,000 cells. […]

[3] = system: HEK293T cells; test: Screen of 48 3×TAPE constructs: efficiency and sequential error rate; conditions: 48 tested tapes
Experimental: In each of these 48 constructs, a 3×TAPE region was accompanied by a pegRNA-expressing cassette designed to target it with a 4-6 bp insertion (16 possible 2-bp barcodes followed by a 2-4 bp key sequence). HEK293T cells were transiently transfected with PE2-encoding plasmid and a pool of 48 pegRNA-by-3×TAPE constructs and harvested them after four days. The 3×TAPE region was PCR-amplified from genomic DNA and sequenced.
Two quantities were calculated for each 3×TAPE array: (1) efficiency, calculated by summing all edited reads and dividing by the total number of reads; and (2) sequential error rate, calculated by summing all edited reads inconsistent with sequential, directional editing and dividing by the total number of edited reads (FIG. 7B). […] Indeed, across the full experiment, a longer key sequence was associated with a lower sequential error rate (FIG. 7C). […] Performance characteristics were highly consistent when the experiment was repeated with integration rather than transient transfection of the constructs (FIG. 7E).

[4] = system: PE2(+) 3N-TAPE-1-pegRNA(+) HEK293T; test: Editing and recovery of 12× and 20×TAPE-1 arrays, 40 days, PacBio sequencing; conditions: 40 days culture
Source text: To evaluate the extent to which such issues might be limiting in practice, a synthetic minisatellite in the form of 12 or 20 repeats of the 14-bp TAPE-1 monomer was generated. 12×TAPE-1 was synthesised as single-stranded DNA (IDT) and 20×TAPE-1 as a plasmid (GenScript). PCR amplicons of each array were cloned into the piggyBAC vector via Gibson assembly. Of note, cloned constructs were used “as is”, even though it is possible that some degree of variation in repeat number was already present (FIG. 11A-11B). […] PCR amplification of TAPE-1 was followed by standard library construction and sequencing on the Pacific Bioscience Sequel platform to obtain circular consensus sequencing (CCS) reads. […]
CCS reads were grouped within each replicate based on a degenerate 8-bp barcode (TargetBC), as these presumably derived from the same integration. On average, each TargetBC group had 3.1±3.4 and 3.8±5.7 reads for ˜ 12×TAPE-1 and ˜20×TAPE-1, respectively.
For long-read amplicon sequencing library preparation, a two-step PCR protocol was used: the first PCR reaction (KAPA Robust polymerase) included 1.5 uL of cell lysate, 0.04 to 0.4 uM of forward and reverse primers in a final reaction volume of 25 μL. […] After the first PCR step, products were assessed on 6% TBE-gel and purified using 0.6×AMPure (Beckman Coulter) and added to the second PCR reaction that appended PacBio sample indexes. […]

Molecule	Editing rate of the first TAPE-1 monomer [1]	Editing rates of the second or third monomers, conditional on preceding monomers already edited [1]	Fifth sites edited (mean) [2]	First sites of active arrays edited (mean) [2]	Sequential error rate (in words) [3]	Edits per array [4]	Repeats of TAPE-1 monomers recovered (average) [4]
TAPE-1: DNA Tape: 3-bp key GGA and tandem array of 14-bp monomer TGATGGTGAGCACG, from HEK3; SEQ ID NO: 2 (DNA GGATGATGGTGAGCACGTGATGGTGAGCACG; listed as DNA, chemistry not fully specified; the letters are possibly those of the target site)	~6%	~20%	19.7%	96.8%	one of the lowest sequential error rates among the 48 tested tapes	–	–
12×TAPE-1: 12 repeats of the 14-bp TAPE-1 monomer, SEQ ID NO: 118 (nucleic acid) DNA: CACCNNNNNNNNGGATGATGGTGAGCACGTGATGGTGAGCACGTGATGGTGAGCACGTGATGGTGAGCACGTGATGGTGAGCACGTGATGGTGAGCACGTGATGGTGAGCACGTGATGGTGAGCACGTGATGGTGAGCACGTGATGGTGAGCACGTGATGGTGAGCACGTGATGGTGAGCACGTGATGGTGAGCGCTTTAAGGC	–	–	–	–	–	4.5±1.3 edits	8.4±3.3 repeats
